Data on 6 compounds can be found in ChEMBL document CHEMBL1131414, “Dual D2-receptor and beta2-adrenoceptor agonists for the treatment of airway diseases. 1. Discovery and biological evaluation of some 7-(2-aminoethyl)-4-hydroxybenzothiazol-2(3H)-one analogues” (J Med Chem, 1998).

Assay [1] concerns the target D(2) dopamine receptor (Bos taurus) (UniProt P20288). Put plainly: Tested in vitro for binding activity to Dopamine receptor D2 in bovine pituitary membranes (D2-LB). The assay is classed as cell membranes.
The target in assay [2] is Adrenergic receptor alpha-1 (Homo sapiens) (UniProt P35348+P25100+P35368). Put plainly: Tested in vitro for binding activity to Alpha-1 adrenergic receptor in field stimulated rabbit ear artery (REA). The settings on record: Oryctolagus cuniculus; target entry is the homologue from another species.
Assay [3] deals with D(2) dopamine receptor (Homo sapiens) (UniProt P14416). Kind of assay: Tested in vitro for binding activity to Dopamine receptor D2 in field stimulated rabbit ear artery (D2-REA); f denotes 'Data compromised by high […] agonist activity'. The settings on record: Oryctolagus cuniculus; target entry is the homologue from another species.
Sequence of D(2) dopamine receptor (Homo sapiens) (P14416 whole entry): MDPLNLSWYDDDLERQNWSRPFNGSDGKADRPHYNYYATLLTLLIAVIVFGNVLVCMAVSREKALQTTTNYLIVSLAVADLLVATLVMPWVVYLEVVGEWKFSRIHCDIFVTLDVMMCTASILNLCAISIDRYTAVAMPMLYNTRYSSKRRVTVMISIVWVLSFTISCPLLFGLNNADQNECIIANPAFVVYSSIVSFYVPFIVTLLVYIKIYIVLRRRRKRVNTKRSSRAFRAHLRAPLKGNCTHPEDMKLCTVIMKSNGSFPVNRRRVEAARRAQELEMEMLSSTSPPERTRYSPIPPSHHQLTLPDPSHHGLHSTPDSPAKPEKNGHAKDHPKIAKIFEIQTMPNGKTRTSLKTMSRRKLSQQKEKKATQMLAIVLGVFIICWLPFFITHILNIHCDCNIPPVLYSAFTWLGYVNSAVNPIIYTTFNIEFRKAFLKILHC
Assay [4] deals with Beta-2 adrenergic receptor (Cavia porcellus) (UniProt Q8K4Z4). Put plainly: Tested in vitro for binding activity to Beta-2 adrenergic receptor in guinea pig trachea (GPT). The assay is classed as tissue-based.
Sequence of Beta-2 adrenergic receptor (Cavia porcellus) (Q8K4Z4 whole entry, looked up): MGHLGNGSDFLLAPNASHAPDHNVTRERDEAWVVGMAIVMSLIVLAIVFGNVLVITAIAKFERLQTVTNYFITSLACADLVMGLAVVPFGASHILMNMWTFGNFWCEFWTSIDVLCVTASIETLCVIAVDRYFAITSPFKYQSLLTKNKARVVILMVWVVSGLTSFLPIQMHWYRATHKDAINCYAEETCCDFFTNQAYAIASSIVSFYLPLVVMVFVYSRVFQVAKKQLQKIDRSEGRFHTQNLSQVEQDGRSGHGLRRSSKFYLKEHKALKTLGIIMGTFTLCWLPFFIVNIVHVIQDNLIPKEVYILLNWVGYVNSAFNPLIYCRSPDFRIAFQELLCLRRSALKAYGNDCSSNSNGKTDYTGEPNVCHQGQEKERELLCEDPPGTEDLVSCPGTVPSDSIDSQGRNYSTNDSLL
Assay [5] concerns the target D(2) dopamine receptor (Homo sapiens) (UniProt P14416). Kind of assay: Tested in vitro for binding activity to Dopamine receptor D2 in field stimulated rabbit ear artery (D2-REA). The following applies: Oryctolagus cuniculus; target entry is the homologue from another species.

The source made the active and inactive calls. No cut-off for these calls is given here.

Sequence of D(2) dopamine receptor (Bos taurus) (P20288 whole entry): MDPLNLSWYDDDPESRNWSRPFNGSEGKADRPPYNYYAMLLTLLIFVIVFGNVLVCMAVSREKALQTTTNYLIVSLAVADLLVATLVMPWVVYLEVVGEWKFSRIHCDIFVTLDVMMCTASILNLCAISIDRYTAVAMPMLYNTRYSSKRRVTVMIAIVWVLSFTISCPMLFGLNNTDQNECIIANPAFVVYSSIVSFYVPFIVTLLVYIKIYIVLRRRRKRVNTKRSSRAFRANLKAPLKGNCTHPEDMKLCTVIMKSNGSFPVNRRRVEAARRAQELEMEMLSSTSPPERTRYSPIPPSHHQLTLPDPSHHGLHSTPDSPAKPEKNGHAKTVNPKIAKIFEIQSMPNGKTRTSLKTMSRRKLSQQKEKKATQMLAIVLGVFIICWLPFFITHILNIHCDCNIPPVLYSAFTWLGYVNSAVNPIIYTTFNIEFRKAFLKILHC

In the case of `Oc1nc2c(O)ccc(CCNCCCCCCNCCc3ccccc3)c2s1`, in assay [1], the pKH was 8.99 and the pKL is 6.44. In assay [2], this compound returned a p[A]50 of 6.81. Further, the “p[A]50” value in assay [3] is “inactive”. The compound further gave a p[A]50 in assay [4] of 7.19.

In assay [1], `Oc1nc2c(O)ccc(CCNCCCCCCOCCc3ccccc3)c2s1` gave a pKH of 9.01 and a pKL of 6.93. The compound further had a p[A]50 in assay [2] of 7.56. Also, the “p[A]50” value in assay [3] was “inactive”. In addition, the p[A]50 in assay [4] came out at 7.89.

Turning to `CCCN(CCC)CCc1ccc(O)c2nc(O)sc12`, the pKH in assay [1] turned out to be 9.34. In addition, the pKL in assay [1] was determined as 6.85. Also, the p[A]50 in assay [2] is 6.03; in assay [5], 9.6; in assay [4], less than 5.

Turning to `O=c1[nH]c2c(O)ccc(CCNCCS(=O)(=O)CCCOCCc3ccccc3)c2s1`, in assay [1], the pKH worked out at 8.61. For the same compound, in assay [1], the pKL is 6.48. Further, the p[A]50 in assay [2] amounted to 6.08; in assay [5], 8.94; in assay [4], 7.95.

Take `OCc1cc(C(O)CNCCCCCCOCCCCc2ccccc2)ccc1O` (configuration not stated): the values for the p[A]50 in assay [2] and in assay [4] were 5.49 and 7.52, respectively.

In assay [1], `Oc1nc2c(O)ccc(CCNCCCCCCOCCCCc3ccccc3)c2s1` displayed a pKH of 9.33 and a pKL of 7.11. Besides, the p[A]50 in assay [2] was 6.85. For the same compound, in assay [3], the “p[A]50” value is “inactive”. The compound also came in with a p[A]50 in assay [4] of 7.33.
